From US20100255598A1, “Medication Adherence Monitoring System” (priority 2007, published 2010)
Like-named read-outs stand apart in the source and are kept apart here.

Assays:
[1] = tested on: alcohol dehydrogenase (ADH); test: Breath ketone:alcohol ratio after 2° alcohol taggant; format: in vivo; settings: breath concentrations
Method: The presence (and persistence) of their corresponding ketones (EDIMs) in exhaled breath represents definitive proof of ingestion of a medication containing 2° alcohols (or a 2° alcohol-based ester, carbonate ester, ketal, etc.) as taggants. In general due to increased steric hindrance, 2° alcohols are not as good substrates for ADH relative to 1° alcohols. Likewise, the enzymatic pathways to degrade alcohol-derived ketones appear less efficient than those for alcohol-derived aldehydes.

[2] = at 37° C.; cited from earlier work
[3] = molecular target: T1, CYP1A2 (Homo sapiens, UniProt P05177); settings: given orally to humans; cited from earlier work
T1 sequence (P05177 1-516): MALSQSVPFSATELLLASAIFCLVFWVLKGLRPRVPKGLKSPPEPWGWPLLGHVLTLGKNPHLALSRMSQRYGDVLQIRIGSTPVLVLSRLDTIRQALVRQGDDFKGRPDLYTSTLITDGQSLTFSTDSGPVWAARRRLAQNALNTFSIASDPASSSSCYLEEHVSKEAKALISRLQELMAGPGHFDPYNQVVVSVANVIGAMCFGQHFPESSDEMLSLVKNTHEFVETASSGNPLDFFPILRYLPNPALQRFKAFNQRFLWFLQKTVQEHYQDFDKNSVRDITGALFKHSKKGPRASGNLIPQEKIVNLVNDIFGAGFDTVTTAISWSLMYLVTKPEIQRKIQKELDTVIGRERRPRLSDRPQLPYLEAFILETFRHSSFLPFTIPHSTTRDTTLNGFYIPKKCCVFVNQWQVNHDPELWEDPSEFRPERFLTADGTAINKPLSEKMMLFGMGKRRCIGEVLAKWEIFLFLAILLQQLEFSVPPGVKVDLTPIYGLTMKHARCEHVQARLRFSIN

[4] = tested on: alcohol dehydrogenase; settings: cited from earlier work
[5] = molecular target: CYP 2D6 (Homo sapiens, UniProt P10635); settings: via CYP 2D6; cited from earlier work
Sequence of CYP 2D6 (P10635 whole entry): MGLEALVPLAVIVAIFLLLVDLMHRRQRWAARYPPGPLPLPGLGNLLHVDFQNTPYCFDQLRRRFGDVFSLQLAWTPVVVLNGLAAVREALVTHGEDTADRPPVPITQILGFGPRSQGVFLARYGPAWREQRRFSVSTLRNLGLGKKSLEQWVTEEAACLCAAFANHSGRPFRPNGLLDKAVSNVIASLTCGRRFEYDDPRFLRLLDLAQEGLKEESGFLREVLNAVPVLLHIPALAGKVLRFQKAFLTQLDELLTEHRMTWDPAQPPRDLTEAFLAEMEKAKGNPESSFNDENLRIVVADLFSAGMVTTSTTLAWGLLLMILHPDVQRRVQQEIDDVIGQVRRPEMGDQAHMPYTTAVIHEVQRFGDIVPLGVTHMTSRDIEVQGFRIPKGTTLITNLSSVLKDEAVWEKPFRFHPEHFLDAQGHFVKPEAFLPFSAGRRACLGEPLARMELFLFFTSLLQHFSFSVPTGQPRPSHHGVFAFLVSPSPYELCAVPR

With `CCC(C)=O` [2-butanone] the “ketone:alcohol ratio 2-butanone/2-butanol” value [1] was greater than 1.

For `CC(C)c1cccc(C(C)C)c1O` [propofol], the vapor pressure [2] is given as roughly 0.2 mmHg.

In the case of `Cn1c(=O)c2c(ncn2C)n(C)c1=O` [caffeine], the “fraction converted to theophylline” value [3] is given as “Approximately 80%”.

In the case of `CO` [Methanol, methanol], the “half life in the blood” value ([4]; in the absence of alcohol) is given as 1.8 to 3.0 h and the “half life in the blood” value ([4]; in the presence of alcohol) is given as 8 to 24 h.

In the case of `COc1ccc2c3c1O[C@H]1[C@@H](O)C=C[C@H]4[C@@H](C2)N(C)CC[C@@]341` [codeine], the “fraction converted to morphine in vivo” value [5] is given as “about 10%”.
